According to patent publication US11298363B2, “Triazolobenzazepines as vasopressin V1a receptor antagonists” (RICHTER GEDEON NYRT., priority 2017, dated 2022):
Where a name gives a salt, the structure may show the parent alone.

What was measured:
[1] = biological target: T1, human vasopressin V1a receptor (Homo sapiens, UniProt P37288); assay: Human vasopressin V1a receptor binding assay; conditions: 1321N1 cell membranes, [3H]vasopressin; read-out: Ki (nM) on hV1a cell line
Method in brief: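 Radioligand competition on membranes from cells expressing human V1a receptor; incubation 60 minutes at 27° C., non-specific binding with 1.2×10^−6 M unlabeled (Arg^8)-vasopressin, filtration separation. Ki by Cheng-Prusoff using Scatchard-derived KD, from at least two independent experiments.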

[2] = biological target: T1, human vasopressin V1a receptor; assay: Functional assay on human vasopressin V1a receptor expressing cell line (intracellular Ca2+ fluorescence); type: cell-based; conditions: 1321N1 cells, (Arg8)-vasopressin at EC80; read-out: IC50 (nM) on hV1a cell line

T1 sequence (P37288 whole entry): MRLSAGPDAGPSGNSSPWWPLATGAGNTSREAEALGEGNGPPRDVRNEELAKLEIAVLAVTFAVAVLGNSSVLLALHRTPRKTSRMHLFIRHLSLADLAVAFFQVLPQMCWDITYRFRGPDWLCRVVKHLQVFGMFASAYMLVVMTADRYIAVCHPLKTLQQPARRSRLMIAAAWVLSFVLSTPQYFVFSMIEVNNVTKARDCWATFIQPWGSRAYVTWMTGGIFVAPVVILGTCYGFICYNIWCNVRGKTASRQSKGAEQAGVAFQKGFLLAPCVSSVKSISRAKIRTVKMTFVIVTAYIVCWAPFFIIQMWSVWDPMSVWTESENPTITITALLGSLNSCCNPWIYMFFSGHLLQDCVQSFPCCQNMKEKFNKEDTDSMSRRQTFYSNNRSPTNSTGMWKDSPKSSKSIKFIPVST

Row | Ki [1] [nM] | IC50 [2] [nM] | SMILES
1 | 0.5 | 2.9 | Clc1ccc2c(c1)CC1(Cc3nnc([C@H]4CC[C@H](N5CCOCC5)CC4)n3-2)OCCO1 [Example 162, 8′-chloro-1′-[trans-4-(morpholin-4-yl)cyclohexyl]-4′H,6′H-spiro[1,3-dioxolane-2,5′-[1,2,4]triazolo[4,3-a][1]benzazepine]hydrochloride]
2 | 1 | 6.2 | CN(C)C1Cc2cc(Cl)ccc2-n2c(nnc2N2CCC3(CC2)OCc2ccccc23)C1 (stereo not shown) [Example 163]
3 | 0.3 | 0.9 | Clc1ccc2c(c1)CC1(Cc3nnc(N4CCN(c5ncccc5Cl)CC4)n3-2)OCCO1 [Example 164, 8′-chloro-1-[4-(3-chloropyridin-2-yl)piperazin-1-yl]-4′H,6′H-spiro[1,3-dioxolane-2,5′-[1,2,4]triazolo[4,3-a][1]benzazepine]]
4 | 1.5 | 21 | CC(C)(C)CN[C@H]1Cc2cc(Cl)ccc2-n2c(nnc2[C@H]2CC[C@H](Oc3ccccn3)CC2)C1 [Example 165, (5S)-8-chloro-N-(2,2-dimethylpropyl)-1-[trans-4-(pyridin-2-yloxy)cyclohexyl]-5,6-dihydro-4H-[1,2,4]triazolo[4,3-a][1]benzazepin-5-amine]
5 | 6.2 | 169 | COC1Cc2cc(Cl)ccc2-n2c(nnc2[C@H]2CC[C@H](C(=O)N3CCN(C)CC3)CC2)C1 (stereo partly drawn) [Example 166, [Trans-4-(8-chloro-5-methoxy-5,6-dihydro-4H-[1,2,4]triazolo[4,3-a][1]benzazepin-1-yl)cyclohexyl](4-methylpiperazin-1-yl)methanone]
6 | 0.4 | 2.6 | Clc1ccc2c(c1)C[C@@H](N1CCOCC1)Cc1nnc([C@H]3CC[C@H](Oc4ccccn4)CC3)n1-2 [Example 167, (5R)-8-chloro-5-(morpholin-4-yl)-1-[trans-4-(pyridin-2-yloxy)cyclohexyl]-5,6-dihydro-4H-[1,2,4]triazolo[4,3-a][1]benzazepine]
7 | 0.4 | 0.8 | CC(=O)N[C@@H]1Cc2cc(Cl)ccc2-n2c(nnc2[C@H]2CC[C@H](Oc3ccccn3)CC2)C1 [Example 168, N-{(5R)-8-chloro-1-[trans-4-(pyridin-2-yloxy)cyclohexyl]-5,6-dihydro-4H-[1,2,4]triazolo[4,3-a][1]benzazepin-5-yl}acetamide]
8 | 0.9 | 2.3 | CC(C)(O)C(=O)N[C@@H]1Cc2cc(Cl)ccc2-n2c(nnc2[C@H]2CC[C@H](Oc3ccccn3)CC2)C1 [Example 169, N-{(5R)-8-chloro-1-[trans-4-(pyridin-2-yloxy)cyclohexyl]-5,6-dihydro-4H-[1,2,4]triazolo[4,3-a][1]benzazepin-5-yl}-2-hydroxy-2-methylpropanamide]
9 | 15.3 | 38 | COC1Cc2cc(Cl)ccc2-n2c(nnc2C2CCN(C3CCOCC3)CC2)C1 (stereo not shown) [Example 170, 8-chloro-5-methoxy-1-[1-(tetrahydro-2H-pyran-4-yl)piperidin-4-yl]-5,6-dihydro-4H-[1,2,4]triazolo[4,3-a][1]benzazepine]
10 | 0.6 | 1.2 | Clc1ccc2c(c1)CC1(Cc3nnc(N4CCN(c5ccccn5)CC4)n3-2)OCCO1 [Example 171, 8′-chloro-1′-[4-(pyridin-2-yl)piperazin-1-yl]-4′H,6′H-spiro[1,3-dioxolane-2,5′-[1,2,4]triazolo[4,3-a][1]benzazepine]]
11 | 0.7 | 5.6 | OC1Cc2cc(Cl)ccc2-n2c(nnc2N2CCC3(CC2)OCc2ccccc23)C1 (stereo not shown) [Example 172, 8-chloro-1-(1′H,3H-spiro[2-benzofuran-1,4′-piperidin]-1′-yl)-5,6-dihydro-4H-[1,2,4]triazolo[4,3-a][1]benzazepin-5-ol]
12 | 1.6 | 11 | OC1Cc2cc(Cl)ccc2-n2c(nnc2N2CCC(c3ncccc3Cl)CC2)C1 (stereo not shown) [Example 173, 8-chloro-1-[4-(3-chloropyridin-2-yl)piperidin-1-yl]-5,6-dihydro-4H-[1,2,4]triazolo[4,3-a][1]benzazepin-5-ol]
13 | 0.7 | 3 | Clc1ccc2c(c1)C[C@@H](N1CCCC1)Cc1nnc([C@H]3CC[C@H](Oc4ccccn4)CC3)n1-2 [Example 174, (5R)-8-chloro-1-[trans-4-pyridin-2-loxcyclohexyl]-5-(pyrrolidin-1-yl)-5,6-dihydro-4H-[1,2,4]triazolo[4,3-a][1]benzazepine]
14 | 50.5 | 323 | COC1Cc2cc(Cl)ccc2-n2c(nnc2C2CCN([C@H]3CCOC3)CC2)C1 (stereo partly drawn) [Example 175, 8-chloro-5-methoxy-1-{1-[(3S)-tetrahydrofuran-3-yl]piperidin-4-yl}-5,6-dihydro-4H-[1,2,4]triazolo[4,3-a][1]benzazepine]
15 | 3.9 | 19 | COC1Cc2cc(Cl)ccc2-n2c(nnc2C2CCN([C@@H]3CCOC3)CC2)C1 (stereo partly drawn) [Example 178, 8-chloro-5-methoxy-1-{1-[(3R)-tetrahydrofuran-3-yl]piperidin-4-yl}-5,6-dihydro-4H-[1,2,4]triazolo[4,3-a][1]benzazepine]
16 | 0.2 | 1.4 | CN(C)CCC(=O)N[C@@H]1Cc2cc(Cl)ccc2-n2c(nnc2[C@H]2CC[C@H](Oc3ccccn3)CC2)C1 [Example 179, N-{(5R)-8-chloro-1-[trans-4-(pyridin-2-yloxy)cyclohexyl]-5,6-dihydro-4H-[1,2,4]triazolo[4,3-a][1]benzazepin-5-yl}-N^3,N^3-dimethyl-β-alaninamide]
17 | 1.1 | 4.1 | O=C(N[C@@H]1Cc2cc(Cl)ccc2-n2c(nnc2[C@H]2CC[C@H](Oc3ccccn3)CC2)C1)C1CCOCC1 [Example 180, N-{(5R)-8-chloro-1-[trans-4-(pyridin-2-yloxy)cyclohexyl]-5,6-dihydro-4H-[1,2,4]triazolo[4,3-a][1]benzazepin-5-yl}tetrahydro-2H-pyran-4-carboxamide]
18 | 0.5 | 1.8 | OC1Cc2cc(Cl)ccc2-n2c(nnc2N2CCC(Oc3ccccn3)CC2)C1 (stereo not shown) [Example 181, 8-chloro-1-[4-(pyridin-2-yloxy)piperidin-1-yl]-5,6-dihydro-4H-[1,2,4]triazolo[4,3-a][1]benzazepin-5-ol]
19 | 19 | 416 | COC1Cc2cc(Cl)ccc2-n2c(nnc2[C@H]2CC[C@H](N3CCN(C)CC3)CC2)C1 (stereo partly drawn) [Example 182, 8-chloro-5-methoxy-1-[trans-4-(4-methylpiperazin-1-yl)cyclohexyl]-5,6-dihydro-4H-[1,2,4]triazolo[4,3-a][1]benzazepine]
20 | 102 | 2120 | COC1Cc2cc(Cl)ccc2-n2c(nnc2[C@H]2CC[C@@H](N3CCN(C)CC3)CC2)C1 (stereo partly drawn) [Example 183, 8-chloro-5-methoxy-1-[cis-4-(4-methylpiperazin-1-yl)cyclohexyl]-5,6-dihydro-4H-[1,2,4]triazolo[4,3-a][1]benzazepine]
21 | 0.6 | 25 | COC1Cc2cc(Cl)ccc2-n2c(nnc2C2CCN(Cc3cccnc3)C2)C1 (stereo not shown) [Example 184, 8-chloro-5-methoxy-1-[1-(pyridin-3-ylmethyl)pyrrolidin-3-yl]-5,6-dihydro-4H-[1,2,4]triazolo[4,3-a][1]benzazepine]
22 | 4.1 | 19 | COC1Cc2cc(Cl)ccc2-n2c(nnc2C2CCN(Cc3ccccn3)C2)C1 (stereo not shown) [Example 185, 8-chloro-5-methoxy-1-[1-(pyridin-2-ylmethyl)pyrrolidin-3-yl]-5,6-dihydro-4H-[1,2,4]triazolo[4,3-a][1]benzazepine]
23 | 0.4 | 1.2 | N#CCC(=O)N[C@@H]1Cc2cc(Cl)ccc2-n2c(nnc2[C@H]2CC[C@H](Oc3ccccn3)CC2)C1 [Example 186, N-(5R)-8-chloro-1-[trans-4-(pyridin-2-yloxy)cyclohexyl]-5,6-dihydro-4H-[1,2,4]triazolo[4,3-a][1]benzazepin-5-yl-2-cyanoacetamide]
24 | 86 | 4750 | COC1Cc2cc(Cl)ccc2-n2c(nnc2C2CCN(C(=O)c3cccnc3)C2)C1 (stereo not shown) [Example 187, [3-(8-chloro-5-methoxy-5,6-dihydro-4H-[1,2,4]triazolo[4,3-a][1]benzazepin-1-yl)pyrrolidin-1-yl](pyridin-3-yl)methanone]
25 | 0.5 | 5.3 | Clc1ccc2c(c1)CC1(Cc3nnc(C4CCN([C@@H]5CCOC5)CC4)n3-2)OCCO1 [Example 188, 8′-chloro-1′-{1-[(3R)tetrahydrofuran-3-yl]piperidin-4-yl}-4′H,6′H-spiro[1,3-dioxolane-2,5′-[1,2,4]triazolo[4,3-a][1]benzazepine]]
26 | 10 | 229 | COC1Cc2cc(Cl)ccc2-n2c(nnc2C2CCN(C(=O)c3ccccn3)C2)C1 (stereo not shown) [Example 189, [3-(8-chloro-5-methoxy-5,6-dihydro-4H-[1,2,4]triazolo[4,3-a][1]benzazepin-1-yl)pyrrolidin-1-yl](pyridin-2-yl)methanone]
27 | 5.3 | 105 | CN(C)[C@H]1CC[C@H](c2nnc3n2-c2ccc(Cl)cc2CC2(C3)OCCO2)CC1 [Example 190, Trans-4-(8′-chloro-4′H,6′H-spiro[1,3-dioxolane-2,5′-[1,2,4]triazolo[4,3-a][1]benzazepin]-1′-yl)-N,N-dimethylcyclohexanamine]
28 | 0.3 | 2.9 | COC1Cc2cc(Cl)ccc2-n2c(nnc2N2CCC3(CC2)OCc2ccccc23)C1 (stereo not shown) [Example 191, 8-chloro-5-methoxy-1-(1′H,3H-spiro[2-benzofuran-1,4′-piperidin]-1′-yl)-5,6-dihydro-4H-[1,2,4]triazolo[4,3-a][1]benzazepine]
29 | 0.8 | 6.3 | COC1Cc2cc(Cl)ccc2-n2c(nnc2N2CCN(c3ncccc3Cl)CC2)C1 (stereo not shown) [Example 192, 8-chloro-1-[4-(3-chloropyridin-2-yl)piperazin-1-yl]-5-methoxy-5,6-dihydro-4H-[1,2,4]triazolo[4,3-a][1]benzazepine]
